Laboratory results published in ChEMBL document CHEMBL6182883, “Discovery of a series of novel 3-sulfonamido benzoic acid derivatives as promising P2Y14R antagonists for acute lung injury” (Eur J Med Chem, 2025).
Activity calls are given as the source filed them. The calls are words filed in the database; no cut-off is given here.

Legend:
[1] = target: T1, P2Y purinoceptor 14 (Homo sapiens, UniProt Q15391); experiment: Antagonist activity at human P2Y14R expressed in HEK293 cells assessed as inhibition of UDPG-induced Ca2+ level by Fluo-4 dye based fluorescence assay; format: functional, cell-based
T1 sequence (Q15391 whole entry): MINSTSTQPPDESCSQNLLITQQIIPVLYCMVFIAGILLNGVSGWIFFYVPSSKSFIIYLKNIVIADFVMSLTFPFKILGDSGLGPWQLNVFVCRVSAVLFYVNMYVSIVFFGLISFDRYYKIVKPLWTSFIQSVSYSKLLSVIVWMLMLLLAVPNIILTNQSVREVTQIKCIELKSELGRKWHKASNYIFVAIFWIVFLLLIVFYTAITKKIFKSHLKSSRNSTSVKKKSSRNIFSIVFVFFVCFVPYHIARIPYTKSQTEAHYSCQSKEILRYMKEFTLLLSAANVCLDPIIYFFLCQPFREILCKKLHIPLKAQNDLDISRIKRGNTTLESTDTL

[2] = target: T2, P2Y purinoceptor 14 (Homo sapiens) (UniProt Q15391); experiment: Antagonist activity at human P2Y14R expressed in HEK293 cells assessed as inhibition of UDPG-induced Ca2+ level at 5 uM by Fluo-4 dye based fluorescence assay relative to control; format: functional, cell-based
T2 sequence (whole entry): T1 sequence (Q15391 whole entry)

[3] = system: Mus musculus; experiment: (§1) Antiinflammatory activity in LPS-induced C57BL/6 mouse ALI model assessed as reduction in alveolar wall thickening at 2 mg/kg, po administered once daily via gavage for 7 days followed by endotoxin challenge at 1 hr post last dose and subsequent LPS stimulation and measured after 24 hrs by H and E staining based histopathological assay; format: functional, organism-based; settings: time 8.0 day
[4] = system: Mus musculus; experiment: as §1, with “neutrophil infiltration” for “alveolar wall thickening”; format: functional, organism-based; settings: time 8.0 day
[5] = system: Mus musculus; experiment: Antiinflammatory activity in LPS-induced C57BL/6 mouse ALI model assessed as reduction in TNF-alpha expression in BALF at 2 mg/kg, po administered once daily via gavage for 7 days followed by endotoxin challenge at 1 hr post last dose and subsequent LPS stimulation and measured after 24 hrs by ELISA; format: functional, organism-based; settings: time 8.0 day
[6] = system: Mus musculus; experiment: Antiinflammatory activity in LPS-induced C57BL/6 mouse ALI model assessed as reduction in IL-1beta expression in BALF at 2 mg/kg, po administered once daily via gavage for 7 days followed by endotoxin challenge at 1 hr post last dose and subsequent LPS stimulation and measured after 24 hrs by ELISA; format: functional, organism-based; settings: time 8.0 day
[7] = system: Mus musculus; experiment: Antiinflammatory activity in LPS-induced C57BL/6 mouse ALI model assessed as reduction in IL-6 expression in BALF at 2 mg/kg, po administered once daily via gavage for 7 days followed by endotoxin challenge at 1 hr post last dose and subsequent LPS stimulation and measured after 24 hrs by ELISA; format: functional, organism-based; settings: time 8.0 day
[8] = system: Mus musculus; experiment: Antiinflammatory activity in LPS-induced C57BL/6 mouse ALI model assessed as reduction in MPO level in BALF at 2 mg/kg, po administered once daily via gavage for 7 days followed by endotoxin challenge at 1 hr post last dose and subsequent LPS stimulation and measured after 24 hrs by ELISA; format: functional, organism-based; settings: time 8.0 day
[9] = Aqueous solubility of the compound in pH 7.4 PBS buffer measured after 24 hrs by shake flask method; format: physicochemical
[10] = Aqueous solubility of the compound in pH 4 PBS buffer measured after 24 hrs by shake flask method; format: physicochemical

inhibition ([2]; filed as antagonist) | Compound | also measured
90.8% | O=C(O)c1cc(NS(=O)(=O)c2ccc(C(F)(F)F)cc2)cc(-c2ccc(C3CCNCC3)cc2)c1 | IC50 [1]: 23.2 nM
47.8% | COc1cccc(S(=O)(=O)Nc2cc(C(=O)O)cc(-c3ccc(C4CCNCC4)cc3)c2)c1 | 
81.5% | O=C(O)c1cc(NS(=O)(=O)c2ccccc2)cc(-c2ccc(C3CCNCC3)cc2)c1 | 
76.5% | O=C(O)c1cc(NS(=O)(=O)c2ccc(-c3ccc(C(F)(F)F)cc3)cc2)cc(-c2ccc(C3CCNCC3)cc2)c1 | 
49.6% | CC(C)(C)c1ccc(S(=O)(=O)Nc2cc(C(=O)O)cc(-c3ccc(C4CCNCC4)cc3)c2)cc1 | 
82.3% | O=C(O)c1cc(NS(=O)(=O)c2ccccc2F)cc(-c2ccc(C3CCNCC3)cc2)c1 | 
80.9% | O=C(O)c1cc(NS(=O)(=O)c2ccc(Cl)cc2)cc(-c2ccc(C3CCNCC3)cc2)c1 | 
59.7% | O=C(O)c1cc(NS(=O)(=O)c2ccc(-c3ccc(F)cc3)cc2)cc(-c2ccc(C3CCNCC3)cc2)c1 | 

The remaining lines, values behind:

Compound | inhibition ([2]; filed as antagonist) | also measured
O=C(O)c1cc(NS(=O)(=O)Cc2ccc(Cl)cc2)cc(-c2ccc(C3CCNCC3)cc2)c1 | 80.1% | 
O=C(O)c1cc(NS(=O)(=O)c2ccc(-c3ccc([N+](=O)[O-])cc3)cc2)cc(-c2ccc(C3CCNCC3)cc2)c1 | 65.1% | 
O=C(O)c1cc(NS(=O)(=O)Cc2ccccc2F)cc(-c2ccc(C3CCNCC3)cc2)c1 | 80.6% | 
O=C(O)c1cc(NS(=O)(=O)c2ccc(OC(F)(F)F)cc2)cc(-c2ccc(C3CCNCC3)cc2)c1 |  | inhibition [2]: 32.1%
O=C(O)c1cc(NS(=O)(=O)Cc2ccc(F)cc2)cc(-c2ccc(C3CCNCC3)cc2)c1 | 82.8% | 
COc1ccc(S(=O)(=O)Nc2cc(C(=O)O)cc(-c3ccc(C4CCNCC4)cc3)c2)cc1OC |  | inhibition [2]: 23.5%
C[C@@H]1C[C@H]2[C@@H]3CCC4=CC(=O)C=C[C@]4(C)[C@@]3(F)[C@@H](O)C[C@]2(C)[C@@]1(O)C(=O)CO |  | Activity [3]: Active; Activity [4]: Active; Activity [5]: Active; Activity [6]: Active; Activity [7]: Active; Activity [8]: Active
O=C(O)c1cc(NS(=O)(=O)Cc2ccccc2)cc(-c2ccc(C3CCNCC3)cc2)c1 | 81.6% | 
O=C(O)c1cc(-c2ccc(C3CCNCC3)cc2)c2ccc(-c3ccc(C(F)(F)F)cc3)cc2c1 [PPTN] |  | solubility thermodynamic at 24 h [9]: < 10 µg/mL; solubility thermodynamic at 24 h [10]: < 10 µg/mL
O=C(O)c1cc(NS(=O)(=O)CCc2ccc(F)cc2)cc(-c2ccc(C3CCNCC3)cc2)c1 | 85.4% | IC50 [1]: 42.6 nM
O=C(O)c1cc(NS(=O)(=O)CCc2ccc(Br)cc2)cc(-c2ccc(C3CCNCC3)cc2)c1 | 96.7% | IC50 [1]: 19.6 nM
